Results: patent EP0575454B1, “USE OF CUCURBITINE FOR THE PREPARATION OF A COSMETIC OR PHARMACEUTICAL, PARTICULARLY DERMATOLOGICAL, ANTIALLERGIC COMPOSITION AND METHOD INVOLVING APPLICATION THEREOF” (PARFUMS CHRISTIAN DIOR, priority 1991, dated 1992)

Tests used:
enzyme HDC = assay: RIA (radioimmunoassay) of the histamine produced by the HDC enzyme; assay type: biochemical; conditions: for % I (Inhibition) à 5 min / histamine libérée / % I (Inhibition) à 10 min: histidine 16.10^-3 molaire, effector 2.10^-3 molaire; for % I (Inhibition) à 5 min / % I (Inhibition) à 10 min: pH 6,3, 2000 µM; for histamine libérée: phosphate buffer pH 6,3
Excerpt: On peut également mettre en évidence l'activité anti-histaminique de la cucurbitine par un dosage radioimmunologique (Radio Immuno Assay ou "RIA") de la manière suivante.
Ce dosage a lieu en dosant l'histamine directement produite sous l'action de l'enzyme HDC, par la méthode RIA, bien connue à l'homme de l'art, et notamment décrite dans la notice d'utilisation d'un kit de dosage dénommé HISTAMINE Radioimmunoassay kit (Cat. # 1302) commercialisé par la Société IMMUNOTECH (Marseille-France).
On dose au cours du temps La quantité d'histamine libérée (en nanomoles) pour une concentration de 16.10^-3 molaire d'histidine dans un tampon phosphate à pH 6,3, respectivement sans effecteur, avec la tritoqualine comme effecteur de comparaison et avec de la cucurbitine racémique de synthèse comme agent anti-histaminique selon l'invention. La tritoqualine et la cucurbitine sont utilisées à la concentration de 2.10^-3 molaire.
Les résultats obtenus exprimés en nanomoles […] libérée sont répertoriés au tableau III ci-après et font l'objet de la courbe de la figure 2 où l'on a indiqué en ordonnées le nombre de nanomoles d'histamine libérée et en abscisses le temps exprimé en minute. La courbe sans effecteur est tracée en trait continu, la courbe obtenue avec la tritoqualine est tracée en trait mixte et la courbe obtenue avec la cucurbitine est tracée en pointillés. TABLEAU III

[1] = tested on: histidine décarboxylase (HDC); assay: Enzymatic test: colorimetric assay (MBTH/DMAB) of histidine decarboxylase inhibition, initial reaction rates (Michaelis curves); assay type: biochemical; conditions: for vitesse initiale: racemic cucurbitine
Excerpt: Ce test est basé sur l'action inhibitrice de la cucurbitine sur l'enzyme histidine décarboxylase (HDC) qui transforme l'histidine en histamine, par rapport à celle de la tritoqualine, qui est un inhibiteur connu de l'HDC (voir Carpi C., Maggi G.C. Bull. Soc Ital. Sper. 1968, 44 (6 543-4), et qui est utilisée en thérapeutique comme hypohistaminémiant sous le non de Hypostamine®.
L'activité inhibitrice sur l'HDC peut être aisément réalisée par un dosage colorimétrique sur la base de la réaction chimique suivante :
MBTH = 3-méthyl-2-benzothiazolinone hydrazone DMAB = 3-(diméthylamino)benzoic acid
En pratique, on observe que la formation de la coloration bleue est proportionnelle à la concentration en histidine consommée. On a ainsi pu définir des vitesses initiales de réaction et établir des courbes dites de Mickaelis comme décrit dans Fundamentals of Enzymology, 2nd Ed. Oxford Univ. Press, 1989.
La vitesse initiale est exprimée en variation d'absorbance par minute.
Les résultats obtenus avec diverses concentrations initiales d'histidine, à savoir à 132 nmol, 265 nmol, et 530 nmol, respectivement sans effecteur, avec tritoqualine comme inhibiteur d'HDC connu, et avec la cucurbitine sous forme racémique comme inhibiteur selon l'invention sont répertoriés au tableau II ci-après et font l'objet de la courbe de Mickaelis, objet de la figure 1. Tableau II

Compound	% I (Inhibition) à 5 min (enzyme HDC; 5 min)	histamine libérée (enzyme HDC; 5 min)	% I (Inhibition) à 10 min (enzyme HDC; 10 min)	histamine libérée (enzyme HDC; 10 min)	activité inhibitrice de la formation d'histamine (comparison in words) (enzyme HDC; compared with tritoqualine, after a few minutes)	vitesse initiale ([1]; Histidine 132 nmol)	vitesse initiale ([1]; Histidine 265 nmol)	vitesse initiale ([1]; Histidine 530 nmol)	inhibiteur d'HDC (comparison in words) ([1]; compared with tritoqualine, Table II and figure 1)
NC1(C(=O)O)CCNC1 (racemic) [Cucurbitine, acide 3-amine-3-pyrrolidinecarboxylique]	55%	14,85 nanomoles	73%	38,29 nanomoles	nettement plus puissante que la tritoqualine	0,013 variation d'absorbance par minute	0,0242 variation d'absorbance par minute	0,042 variation d'absorbance par minute	beaucoup plus puissant que la tritoqualine
CCOc1c(N)c2c(c(OCC)c1OCC)C(C1c3c(cc4c(c3OC)OCO4)CCN1C)OC2=O (stereo not shown) [Tritoqualine, tritoqualine, reference compound]	49%	16,48 nanomoles	65%	49,27 nanomoles	–	0,021 variation d'absorbance par minute	0,0374 variation d'absorbance par minute	0,0604 variation d'absorbance par minute	–
